Counter-ions that a name gives are not always drawn.

The subject of series [1] is reserpine induced hypothermia. Put plainly: Antireserpine activity in mice (antagonism of reserpine induced hypothermia). The class given is in vivo.
The nature of series [2]: in vivo. To be noted: mouse, ip.
The subject of series [3] is mice. To be noted: mouse, in vivo, ip.
Where [4] appears, read: mice, i.p., reserpine 5 mg/kg i.p., Amitriptyline = 1.

Regarding `CN(C)CCCOc1ccccc1Cc1ccccc1` [2-(3-dimethylaminopropoxy)diphenylmethane hydrochloride], the “antidepressant activity (in words)” value in series [1] (mouse, in vivo) was “no such activity”.

On to `CN(C)CCCCOc1ccccc1Cc1ccccc1.Cl` [2-(4-dimethylaminobutoxy) diphenyl methane hydrochloride], for which the “Antireserpine activity, Relative Potency” value in series [1] (mouse, in vivo) amounted to 0.

In series [2], `CCNCCCCOc1ccccc1Cc1ccccc1` [2-(4-ethylaminobutoxy)diphenylmethane hydrochloride] registered an LD50 of 120 mg/kg. In addition, the “Antireserpine activity, Relative Potency” value in series [1] (mouse, in vivo) was determined as 0.53.

Regarding `CN(C)CCCCCOc1ccccc1Cc1ccccc1` [2-(5-dimethylaminopentyloxy)diphenylmethane hydrochloride], the “Antireserpine activity, Relative Potency” value in series [1] (setting [4]) stood at 0.23. Moreover, in series [1] (mouse, in vivo), the “antidepressant activity (in words)” value was “inferior antidepressant activity”.

`CNCCCCCOc1ccccc1Cc1ccccc1` [2-(5-methylaminopentyloxy)diphenylmethane hydrochloride] came in with an LD50 in series [2] of 160 mg/kg. Also, in series [1] (mouse, in vivo), the “Antireserpine activity, Relative Potency” value was determined as 0.54.

As to `c1ccc(Cc2ccccc2OCCCCN2CCCCC2)cc1` [2-[4-(1-piperidyl)butoxy]diphenylmethane hydrochloride], in series [1] (setting [4]), the “Antireserpine activity, Relative Potency” value is on record as 0.41.

With `CN(C)CCC=C1c2ccccc2CCc2ccccc21` [Amitriptyline], the LD50 in series [3] worked out at 65 mg/kg.

By LD50 is commonly meant the dose expected to kill half of the subjects tested.

The values are drawn from patent US4091114A, “Pharmaceutically active 2-omega-aminoalkoxydiphenylmethanes” (Mitsubishi Chemical Industries Limited, priority 1976, dated 1978).
